We go through three molecules from patent US20050245434A1, “Oxygenated dibenzo-alpha-pyrone chromoproteins” (priority 2004, published 2005).

Each structure is given as a SMILES string. ≈ marks a conversion by molar mass, not a printed value.

This test relates to Fe-ADP-Ascorbate induced lipid peroxidation (LPO) in rat brain. The test is described as follows: Inhibition of Fe-ADP-ascorbate induced lipid peroxidation (LPO) in rat brain homogenate. It is filed as biochemical, Albino rats (Sprague Dawley strain). The following applies: 37° C., 30 minutes. The protocol: Inhibition of Fe-ADP-Ascorbate Induced Lipid Peroxidation (LPO) in Rat Brain by DBP and DCPs
Albino rats (Sprague Dawley strain) were sacrificed by cervical dislocation and decapitation. Brains were dissected out and 10% w/v homogenate was prepared in 0.15 M KCl. The brain homogenate was centrifuged at 1500 rpm for 10 minutes and the supernatant was used for the study. The incubation mixture contained in a final volume of 1 ml., brain homogenate (500 μl), distilled water (100 μl) or test compounds dissolved in solvents at different concentrations (10 to 100 μg/ml of the final volume). Peroxidation was initiated by adding FeCl3 (100 μM), ADP (1 mM) and ascorbate (100 μM) to give the final concentration stated. After incubating at 37° C. for 30 minutes, the reaction was stopped by adding acetic acid buffer (1.5 ml, pH 3.5) and thiobarbituric acid solution (1.5 ml, pH 7.4) to 1 ml of LPO mixture. The reaction mixture was heated at 85° C. for 30 minutes, cooled, centrifuged (2000 rpm for 10 minutes) and the absorbance of the supernatant was measured at 532 nm. IC50 values were calculated in the usual way by plotting the concentration of the test compounds versus percent inhibition of LPO.

Take `O=c1oc2cc(O)ccc2c2ccc(O)cc12` [3,8-Dihydroxydibenzo-alpha-pyrone]: the “IC50 (effect on LPO)” value is 30 µg/mL (≈ 131 µM).

Consider `O=C1O[C@H]([C@@H](O)CO)C(O)=C1O` [Ascorbic acid], for which the “IC50 (effect on LPO)” value came to 70 µg/mL (≈ 397 µM).

Consider `CC(=O)Oc1c(C)c(C)c2c(c1C)CCC(C)(CCC[C@H](C)CCC[C@H](C)CCCC(C)C)O2` (stereo partly drawn) [Vitamin E acetate], for which the “IC50 (effect on LPO)” value is 56 µg/mL.
